This note sets out measurements from US7253286B2, “Nitrogen-containing aromatic derivatives” (Eisai Co., Ltd, priority 2000, dated 2007).

Structures are written as SMILES. Where a name gives a salt, the structure may show the parent alone.

For the assay, the system named is Human Umbilical Vein Endothelial Cells (HUVECs). Briefly: Inhibition against sandwich tube formation by vascular endothelial cells in response to stimulation by VEGF. It is filed as cell-based. The settings on record: HUVEC in collagen gel sandwich, stimulation by VEGF (25 ng/ml VEGF and 10 ng/ml EGF), 4th day, total tube length, read-out: IC50 (concentration required for 50% inhibition of tube formation). The method, then: Inhibition Against Sandwich Tube Formation by Vascular Endothelial Cells in Response to Stimulation by Angiogenic Factor
Human Umbilical Vein Endothelial Cells (HUVECS) were isolated by the same method as in Pharmacological Test Example 1, and were cultured in a 5% CO2 incubator (37° C.) using EGM-2 medium (purchased from Clonetics Corp.) until the cells reached confluency.
An ice-cooled mixture of collagen: 5× RPMI 1640: reconstitution buffer (all purchased from Nitta Gelatin, Inc.) at 7:2:1 was dispensed at 0.4 ml into each well of a 24-well plate, and then stationed for 40 minutes in a 5% CO2 incubator (37° C.) for gelling. The HUVECs were recovered using trypsin-EDTA and then suspended in human endothelial serum free medium (SFM, purchased from GIBCO BRL) containing added angiogenic factors [20 ng/ml FGF2 (purchased from GIBCO BRL) and 10 ng/ml EGF (purchased from GIBCO BRL), or 25 ng/ml VEGF (purchased from Wako Pure Chemical Industries Co., Ltd.) and 10 ng/ml EGF, or 30 ng/ml HGF (purchased from R&D Co.) and 10 ng/ml EGF], and the cell suspension was added at 0.4 ml to each well (with the cell counts differing slightly according to the HUVEC lot), and cultured overnight in a 5% CO2 incubator (37° C.). On the following day, the medium on the upper layer was aspirated off, and then 0.4 ml of an ice-cooled mixture of collagen: 5× RPMI 1640: reconstitution buffer (all purchased from Nitta Gelatin, Inc.) at 7:2:1 was superposed into each well prior to stationing for 4 hours in a 5% CO2 incubator (37° C.) for gelling. After adding 1.5 ml of an SFM solution containing each of the aforementioned angiogenic factors and a diluted test substance onto the upper layer, culturing was performed in a 5% CO2 incubator (37° C.). Upon aspirating off the culture supernatant in each well on the 4th day after addition of the test substance, 0.4 ml of a 3.3 mg/ml MTT solution dissolved in PBS (purchased from Sigma Corp.) was added to each well and culturing was performed for approximately 2 hours in a 5% CO2 incubator (37° C.). The tubes formed in the collagen gel of each well were stained by the MTT, the tube images were loaded into a computer (Macintosh), and the total length of the tubes was determined by image analysis software “MacScope” (purchased from Mitani Corp.). The ratio of the total length of the tubes formed in the well containing the test substance with respect to the total length of the tubes formed in the well containing no test substance was expressed as a percentage, and the concentration of each test substance required for 50% inhibition of tube formation (IC50) was determined from the ratio value.
On to `NC(=O)c1cc2c(Oc3ccc(NC(=O)NC4CC4)c(Cl)c3)ccnc2cc1OCCO` [Example 386, 4-(3-Chloro-4-(cyclopropylaminocarbonyl)aminophenoxy)-7-(2-hydroxyethoxy)-6-quinolinecarboxamide], for which the IC50 is 10 nM.
As to `COc1cc2nccc(Oc3ccc(NC(=O)NC4CC4)c(Cl)c3)c2cc1C(=O)Nc1ncc[nH]1` [Example 405, N6-(1H-2-Imidazolyl)-4-(3-chloro-4-(((cyclopropylamino)carbonyl)amino)phenoxy)-7-methoxy-6-quinolinecarboxamide], the IC50 came to 28 nM.
`COc1cc2nccc(Oc3ccc(NC(=O)NC4CC4)c(Cl)c3)c2cc1C(=O)Nc1cccnc1` [Example 408, N6-(3-Pyridyl)-4-(3-chloro-4-(((cyclopropylamino)carbonyl)amino)phenoxy)-7-methoxy-6-quinolinecarboxamide]: the IC50 came to 39 nM.
As to `CCN(CC)CCCOc1cc2nccc(Oc3ccc(NC(=O)NC4CC4)c(Cl)c3)c2cc1C#N` [Example 419, N-(2-Chloro-4-((6-cyano-7-(3-(diethylamino)propoxy)-4-quinolyl)oxy)phenyl)-N′-cyclopropylurea], the IC50 is 10 nM.
Regarding `COC(=O)c1cc2c(Oc3ccc(N(C)C(=O)Nc4ccc(F)cc4)cc3)ccnc2cc1OC` [Example 433, Methyl 4-(4-(((4-fluoroanilino)carbonyl)(methyl)amino)phenoxy)-7-methoxy-6-quinoline carboxylate], the IC50 turned out to be 5.6 nM.
As to `COCCNC(=O)c1cc2c(Oc3ccc(N(C)C(=O)Nc4ccc(F)cc4)cc3)ccnc2cc1OC` [Example 436, N6-(2-Methoxyethyl)-4-(4-(((4-fluoroanilino)carbonyl)(methyl)amino)phenoxy)-7-methoxy-6-quinolinecarboxamide], the IC50 is 22 nM.
`COc1cc2nccc(Oc3ccc(NC(=O)NC4CC4)c(Cl)c3)c2cc1C(=O)NCCC#N` [Example 440, N6-(2-Cyanoethyl)-4-(3-chloro-4-(((cyclopropylamino)carbonyl)amino)phenoxy)-7-methoxy-6-quinolinecarboxamide]: the IC50 turned out to be 1.4 nM.
In the case of `CNC(=O)c1cc2c(Oc3ccc(NC(=O)NC4CC4)c(Cl)c3)ccnc2cc1OC` [Example 442, N6-Methyl-4-(3-chloro-4-(((cyclopropylamino)carbonyl)amino)phenoxy)-7-methoxy-6-quinolinecarboxamide], the IC50 was 7.2 nM.
For `CCCNC(=O)c1cc2c(Oc3ccc(NC(=O)NC4CC4)c(Cl)c3)ccnc2cc1OC` [Example 444, N6-Propyl-4-(3-chloro-4-(((cyclopropylamino)carbonyl)amino)phenoxy)-7-methoxy-6-quinolinecarboxamide] the value was 5.5 nM; for `C#CCNC(=O)c1cc2c(Oc3ccc(NC(=O)NC4CC4)c(Cl)c3)ccnc2cc1OC` [Example 445, N6-Propargyl-4-(3-chloro-4-(((cyclopropylamino)carbonyl)amino)phenoxy)-7-methoxy-6-quinolinecarboxamide], 6.2 nM; for `COc1cc2nccc(Oc3ccc(NC(=O)NC4CC4)c(Cl)c3)c2cc1C(=O)NCC1CC1` [Example 446, N6-Cyclopropylmethyl-4-(3-chloro-4-(((cyclopropylamino)carbonyl)amino)phenoxy)-7-methoxy-6-quinolinecarboxamide], 4 nM.
With `COc1cc2nccc(Oc3ccc(NC(=O)NC4CC4)c(Cl)c3)c2cc1C(=O)NC[C@H]1CCCO1` [Example 450, N6-((2R)Tetrahydro-2-furanylmethyl)-4-(3-chloro-4-(((cyclopropylamino)carbonyl)amino)phenoxy)-7-methoxy-6-quinolinecarboxamide], the IC50 is 4.5 nM.
For `N#Cc1cc2c(Oc3ccc(NC(=O)Nc4ccc(F)cc4)cc3)ccnc2cc1OC[C@H](O)CN1CCCC1` [Example 454, N-(4-((6-Cyano-7-(((2R)-2-hydroxy-3-(1-pyrrolidino)propyl)oxy)-4-quinolyl)oxy)phenyl)-N′-(4-fluorophenyl)urea], the IC50 is 3.7 nM.
With `CCN(CC)C[C@@H](O)COc1cc2nccc(Oc3ccc(NC(=O)Nc4ccc(F)cc4)cc3)c2cc1C#N` [Example 455, N-(4-((6-Cyano-7-(((2R)-3-(diethylamino)-2-hydroxypropyl)oxy)-4-quinolyl)oxy)phenyl)-N′-(4-fluorophenyl)urea] the figure was 7.8 nM; with `COc1cc2nccc(Oc3ccc(NC(=O)NC4CC4)c(C)c3C)c2cc1C(N)=O` [Example 490, N-[4-(6-Carbamoyl-7-methoxy-4-quinolyl)oxy-2,3-dimethylphenyl]-N′-cyclopropylurea], 26 nM; with `N#Cc1cc2c(Oc3ccc(NC(=O)Nc4ccc(F)cc4)c(F)c3)ccnc2cc1OCC(O)CN1CCCC1` (centres unmarked) [Example 492, N-{4-[6-Cyano-7-(2-hydroxy-3-(pyrrolidin-1-yl)propoxy)quinolin-4-yloxy]-2-fluorophenyl}-N′-(4-fluorophenyl)urea], 7.2 nM.
For `CCN(CC)CC(O)COc1cc2nccc(Oc3ccc(NC(=O)Nc4ccc(F)cc4)c(F)c3)c2cc1C#N` (centres unmarked) [Example 493, N-{4-[6-Cyano-7-(3-diethylamino-2-hydroxypropoxy)quinolin-4-yloxy]-2-fluorophenyl}-N′-(4-fluorophenyl)urea], the IC50 is 9 nM.
With `N#Cc1cc2c(Oc3ccc(NC(=O)Nc4ccc(F)cc4)c(F)c3)ccnc2cc1OCC(O)CN1CCOCC1` (centres unmarked) [Example 494, N-{4-[6-Cyano-7-(2-hydroxy-(3-morpholin-4-yl)propoxy)quinolin-4-yloxy]-2-fluorophenyl}-N′-(4-fluorophenyl)urea] the figure was 9.3 nM; with `N#Cc1cc2c(Oc3ccc(NC(=O)Nc4ccc(F)cc4)c(F)c3)ccnc2cc1OC[C@H](O)CN1CCCCC1` [Example 497, N-(4-{6-Cyano-7-[(2R)-2-hydroxy-3-(piperidin-1-yl)propoxy]quinolin-4-yloxy}-2-fluorophenyl)-N′-(4-fluorophenyl)urea], 4.6 nM; with `N#Cc1cc2c(Oc3ccc(NC(=O)Nc4nccs4)c(F)c3)ccnc2cc1OCC1CCNCC1` [Example 503, N-{4-[6-Cyano-7-(piperidin-4-ylmethoxy)quinolin-4-yloxy]-2-fluorophenyl}-N′-(2-thiazolyl)urea], 6.4 nM.
With `CN1CCC(COc2cc3nccc(Oc4ccc(NC(=O)Nc5nccs5)c(F)c4)c3cc2C#N)CC1` [Example 504, N-{4-[6-Cyano-7-(1-methylpiperidin-4-ylmethoxy)quinolin-4-yloxy]-2-fluorophenyl}-N′-(2-thiazolyl)urea], the IC50 is 4.6 nM.
In the case of `CN1CCCC(COc2cc3nccc(Oc4ccc(NC(=O)Nc5nccs5)c(F)c4)c3cc2C#N)C1` (centres unmarked) [Example 505, N-{4-[6-Cyano-7-(1-methylpiperidin-3-ylmethoxy)quinolin-4-yloxy]-2-fluorophenyl}-N′-(2-thiazolyl)urea], the IC50 was found to be 8.9 nM.
`CCNC(=O)n1ccc2cc(Oc3ccnc4cc(OC)c(C(=O)NCCF)cc34)ccc21` [Example 518]: the IC50 turned out to be 1.3 nM.
As to `CCNC(=O)n1ccc2cc(Oc3ccnc4cc(OC)c(C(=O)NOC)cc34)ccc21` [Example 520, 6-Methoxycarbamoyl-7-methoxy-4-((1-ethylcarbamoyl)indol-5-yloxy)quinoline], the IC50 was 1.5 nM.
Regarding `CONC(=O)c1cc2c(Oc3ccc4c(ccn4C(=O)NC4CC4)c3)ccnc2cc1OC` [Example 521, 6-Methoxycarbamoyl-7-methoxy-4-((1-cyclopropylcarbamoyl)indol-5-yloxy)quinoline], the IC50 turned out to be 0.5 nM.
Regarding `COc1cc(Nc2cc(Oc3ccc(NC(=O)Nc4ccccc4)cc3)ncn2)cc(OC)c1OC` [Example 578, N-Phenyl-N′-(4-(6-(3,4,5-trimethoxyphenylamino)pyrimidin-4-yloxy)phenyl)urea hydrochloride], the IC50 was 13 nM.
